Results on 23 compounds are retold here after US20240123079A1 (Seagen Inc., priority 2021, published 2024).

pEC50: −log10 of the molar value.

One experiment deals with THP1-Dual™ reporter cells. Kind of experiment: THP1-Dual cell reporter assay (IRF-Lucia luciferase reporter). The conditions noted are these: ADCs: drug linker conjugated to a targeted mAb, 48 h. It is filed as cell-based, human. The method in brief:
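THP1-Dual monocytic cells (~100,000/well) were exposed to compound for 24 h (ADCs 48 h). Secreted IRF-driven Lucia luciferase in the supernatant was quantified by QUANTI-Luc luminescence.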
Background: Reporter assays use an easily measured gene product as a stand-in for the process of interest.
With `CCn1nc(C)cc1C(=O)Nc1nc2cc(C(N)=O)cc(OC)c2n1C/C=C/Cn1c(NC(=O)c2cc(C)nn2CC)nc2cc(C(N)=O)cc(OCCCN(C)C(=O)[C@H](CC(C)C)NC(=O)CCN3C(=O)C=CC3=O)c21` [Compound 121], the EC50 (usually the midpoint of the concentration-response curve) was 3.0 ng/mL.
The same measure, in the same setting: the result for `CCn1nc(C)cc1C(=O)Nc1nc2cc(C(N)=O)cc(OC)c2n1C/C=C/Cn1c(NC(=O)c2cc(C)nn2CC)nc2cc(C(N)=O)cc(OCCCN(C)C(=O)[C@H](Cc3ccccc3)NC(=O)CCN3C(=O)C=CC3=O)c21` [Compound 122] reads 5.6 ng/mL.
Still for that read-out and setting: as for `CCn1nc(C)cc1C(=O)Nc1nc2cc(C(N)=O)cc(OC)c2n1C/C=C/Cn1c(NC(=O)c2cc(C)nn2CC)nc2cc(C(N)=O)cc(OCCCN(C)C(=O)[C@H](CCC(=O)OC)NC(=O)CCN3C(=O)C=CC3=O)c21` [Compound 123], the figure is 1.6 ng/mL; as for `CCn1nc(C)cc1C(=O)Nc1nc2cc(C(N)=O)cc(OC)c2n1C/C=C/Cn1c(NC(=O)c2cc(C)nn2CC)nc2cc(C(N)=O)cc(OCCCN(C)C(=O)[C@H](Cc3ccc(OC)cc3)NC(=O)CCN3C(=O)C=CC3=O)c21` [Compound 124], 9.1 ng/mL; as for `CCn1nc(C)cc1C(=O)Nc1nc2cc(C(N)=O)cc(OC)c2n1C/C=C/Cn1c(NC(=O)c2cc(C)nn2CC)nc2cc(C(N)=O)cc(OCCCN(C)C(=O)[C@@H](NC(=O)CCN3C(=O)C=CC3=O)[C@@H](C)OC)c21` [Compound 125], 1.4 ng/mL.
In the case of `CCn1nc(C)cc1C(=O)Nc1nc2cc(C(=O)O)cc(OC)c2n1C/C=C/Cn1c(NC(=O)c2cc(C)nn2CC)nc2cc(C(N)=O)cc(OCCCN(C)C(=O)CCN3C(=O)C=CC3=O)c21` [Compound 126, (E)-1-(4-(5-carbamoyl-7-(3-(3-(2,5-dioxo-2,5-dihydro-1H-pyrrol-1-yl)-N-methylpropanamido)propoxy)-2-(1-ethyl-3-methyl-1H-pyrazole-5-carboxamido)-1H-benzo[d]imidazol-1-yl)but-2-en-1-yl)-2-(1-ethyl-3-methyl-1H-pyrazole-5-carboxamido)-7-methoxy-1H-benzo[d]imidazole-5-carboxylic acid], the “EC50 (ng/mL)” value is >10,000 ng/mL.
On to `CCn1nc(C)cc1C(=O)Nc1nc2cc(S(=O)(=O)NC)ccc2n1C/C=C/Cn1c(NC(=O)c2cc(C)nn2CC)nc2cc(C(N)=O)cc(OCCCN(C)C(=O)CCN3C(=O)C=CC3=O)c21` [Compound 128, (E)-7-(3-(3-(2,5-dioxo-2,5-dihydro-1H-pyrrol-1-yl)-N-methylpropanamido)propoxy)-2-(1-ethyl-3-methyl-1H-pyrazole-5-carboxamido)-1-(4-(2-(1-ethyl-3-methyl-1H-pyrazole-5-carboxamido)-5-(N-methylsulfamoyl)-1H-benzo[d]imidazol-1-yl)but-2-en-1-yl)-1H-benzo[d]imidazole-5-carboxamide], for which the “EC50 (ng/mL)” value is >10,000 ng/mL.
Consider `CCn1nc(C)cc1C(=O)Nc1nc2cc(C(N)=O)cc(OC)c2n1C/C=C/Cn1c(NC(=O)c2cc(C)nn2CC)nc2cc(C(N)=O)cc(OCCCN(C(=O)CCN3C(=O)C=CC3=O)C3CC3)c21` [Compound 133, (E)-1-(4-(5-carbamoyl-2-(1-ethyl-3-methyl-1H-pyrazole-5-carboxamido)-7-methoxy-1H-benzo[d]imidazol-1-yl)but-2-en-1-yl)-7-(3-(N-cyclopropyl-3-(2,5-dioxo-2,5-dihydro-1H-pyrrol-1-yl)propanamido)propoxy)-2-(1-ethyl-3-methyl-1H-pyrazole-5-carboxamido)-1H-benzo[d]imidazole-5-carboxamide], for which the “EC50” value was determined as 12.2 ng/mL.
Regarding `CCn1nc(C)cc1C(=O)Nc1nc2cc(C(N)=O)cc(OC)c2n1C/C=C/Cn1c(NC(=O)c2cc(C)nn2CC)nc2cc(C(N)=O)cc(OCCC[N+](C)(C)Cc3ccc(O[C@@H]4O[C@H](C(=O)O)[C@@H](O)[C@H](O)[C@H]4O)cc3NC(=O)CCNC(=O)CCN3C(=O)C=CC3=O)c21.O=C([O-])C(F)(F)F` [Compound 134], the “EC50” value was 10.3 ng/mL.

The experiment is the same for the next values; noted with them: Homo sapiens, THP1-Dual; free compounds, 24 h, Lucia reporter signal; read-out: EC50.
For the compound `CCn1nc(C)cc1C(=O)Nc1nc2cc(C(N)=O)cc(OC)c2n1C/C=C/Cn1c(NC(=O)c2cc(C)nn2CC)nc2cc(C(N)=O)cc(OCCCN(C)C(=O)[C@@H](N)CC(C)C)c21` [Compound 114], the pEC50 (usually the EC50 on a negative log10 scale, so that one unit is a factor of ten) was 8.03.
Still for that read-out and setting: the result for `CC[C@H](C)[C@H](N)C(=O)N(C)CCCOc1cc(C(N)=O)cc2nc(NC(=O)c3cc(C)nn3CC)n(C/C=C/Cn3c(NC(=O)c4cc(C)nn4CC)nc4cc(C(N)=O)cc(OC)c43)c12` [Compound 115] reads 7.76; that for `CCn1nc(C)cc1C(=O)Nc1nc2cc(C(N)=O)cc(OC)c2n1C/C=C/Cn1c(NC(=O)c2cc(C)nn2CC)nc2cc(C(N)=O)cc(OCCCN(C)C(=O)[C@@H](N)Cc3ccccc3)c21` [Compound 116], 7.94.
In the case of `CCn1nc(C)cc1C(=O)Nc1nc2cc(C(N)=O)cc(OC)c2n1C/C=C/Cn1c(NC(=O)c2cc(C)nn2CC)nc2cc(C(N)=O)cc(OCCCN(C)C(=O)[C@@H](N)CCC(=O)OC)c21` [Compound 117], the pEC50 was 7.84.
On to `CCn1nc(C)cc1C(=O)Nc1nc2cc(C(N)=O)cc(OC)c2n1C/C=C/Cn1c(NC(=O)c2cc(C)nn2CC)nc2cc(C(N)=O)cc(OCCCN(C)C(=O)[C@@H](N)Cc3ccc(OC)cc3)c21` [Compound 118], for which the pEC50 is 7.63.
Still for that read-out and setting: as for `CCn1nc(C)cc1C(=O)Nc1nc2cc(C(N)=O)cc(OC)c2n1C/C=C/Cn1c(NC(=O)c2cc(C)nn2CC)nc2cc(C(N)=O)cc(OCCCN(C)C(=O)[C@@H](N)Cc3cn(C)cn3)c21` [Compound 119], the figure is 7.30.
On to `CCn1nc(C)cc1C(=O)Nc1nc2cc(C(N)=O)cc(OC)c2n1C/C=C/Cn1c(NC(=O)c2cc(C)nn2CC)nc2cc(C(N)=O)cc(OCCCN(C)C(=O)[C@@H](N)[C@@H](C)OC)c21` [Compound 120], for which the pEC50 is 8.28.
Regarding `CCn1nc(C)cc1C(=O)Nc1nc2cc(S(=O)(=O)NC)ccc2n1C/C=C/Cn1c(NC(=O)c2cc(C)nn2CC)nc2cc(C(N)=O)cc(OCCCN(C)C(=O)OC(C)(C)C)c21` [Compound 127, tert-butyl (E)-(3-((5-carbamoyl-2-(1-ethyl-3-methyl-1H-pyrazole-5-carboxamido)-1-(4-(2-(1-ethyl-3-methyl-1H-pyrazole-5-carboxamido)-5-(N-methylsulfamoyl)-1H-benzo[d]imidazol-1-yl)but-2-en-1-yl)-1H-benzo[d]imidazol-7-yl)oxy)propyl)(methyl)carbamate], the pEC50 is 6.52.
The same measure, in the same setting: as for `CCn1nc(C)cc1C(=O)Nc1nc2cc(S(=O)(=O)NC)ccc2n1C/C=C/Cn1c(NC(=O)c2cc(C)nn2CC)nc2cc(C(N)=O)cc(OCCCNC)c21` [Compound 128a], the figure is less than 5.00.
Same read-out and setting: as for `CCn1nc(C)cc1C(=O)Nc1nc2cc(C(=O)OC)cc(OC)c2n1C/C=C/Cn1c(NC(=O)c2cc(C)nn2CC)nc2cc(C(N)=O)cc(OCCCN(C)C(=O)CCN3C(=O)CC(SC[C@H](N)C(=O)O)C3=O)c21` (stereo partly drawn) [Compound 129, S-(1-(3-((3-((5-carbamoyl-2-(1-ethyl-3-methyl-1H-pyrazole-5-carboxamido)-1-((E)-4-(2-(1-ethyl-3-methyl-1H-pyrazole-5-carboxamido)-7-methoxy-5-(methoxycarbonyl)-1H-benzo[d]imidazol-1-yl)but-2-en-1-yl)-1H-benzo[d]imidazol-7-yl)oxy)propyl)(methyl)amino)-3-oxopropyl)-2,5-dioxopyrrolidin-3-yl)-L-cysteine], the figure is 6.08; as for `CCn1nc(C)cc1C(=O)Nc1nc2cc(C(=O)O)cc(OC)c2n1C/C=C/Cn1c(NC(=O)c2cc(C)nn2CC)nc2cc(C(N)=O)cc(OCCCN(C)C(=O)CCN3C(=O)CC(SC[C@H](N)C(=O)O)C3=O)c21` (stereo partly drawn) [Compound 130, 1-((E)-4-(7-(3-(3-(3-(((R)-2-amino-2-carboxyethyl)thio)-2,5-dioxopyrrolidin-1-yl)-N-methylpropanamido)propoxy)-5-carbamoyl-2-(1-ethyl-3-methyl-1H-pyrazole-5-carboxamido)-1H-benzo[d]imidazol-1-yl)but-2-en-1-yl)-2-(1-ethyl-3-methyl-1H-pyrazole-5-carboxamido)-7-methoxy-1H-benzo[d]imidazole-5-carboxylicacid], 5.65; as for `CCn1nc(C)cc1C(=O)Nc1nc2cc(C(N)=O)ccc2n1C/C=C/Cn1c(NC(=O)c2cc(C)nn2CC)nc2cc(C(N)=O)cc(OCCCN(C)C(=O)CCCCCN3C(=O)CC(SC[C@H](N)C(=O)O)C3=O)c21` (stereo partly drawn) [Compound 132, S-(1-(6-((3-((5-carbamoyl-1-((E)-4-(5-carbamoyl-2-(1-ethyl-3-methyl-1H-pyrazole-5-carboxamido)-1H-benzo[d]imidazol-1-yl)but-2-en-1-yl)-2-(1-ethyl-3-methyl-1H-pyrazole-5-carboxamido)-1H-benzo[d]imidazol-7-yl)oxy)propyl)(methyl)amino)-6-oxohexyl)-2,5-dioxopyrrolidin-3-yl)-L-cysteine], 7.43.
Take `CCn1nc(C)cc1C(=O)Nc1nc2cc(S(N)(=O)=O)ccc2n1C/C=C/Cn1c(NC(=O)c2cc(C)nn2CC)nc2cc(C(N)=O)cc(OCCC3CNC3)c21` [Compound 135, (E)-7-(2-(azetidin-3-yl)ethoxy)-2-(1-ethyl-3-methyl-1H-pyrazole-5-carboxamido)-1-(4-(2-(1-ethyl-3-methyl-1H-pyrazole-5-carboxamido)-5-sulfamoyl-1H-benzo[d]imidazol-1-yl)but-2-en-1-yl)-1H-benzo[d]imidazole-5-carboxamide]: the pEC50 was 5.70.
Still for that read-out and setting: the result for `CCn1nc(C)cc1C(=O)Nc1nc2cc(S(N)(=O)=O)ccc2n1C/C=C/Cn1c(NC(=O)c2cc(C)nn2C)nc2cc(C(N)=O)cc(OCCC3CNC3)c21` [Compound 136, (E)-7-(2-(azetidin-3-yl)ethoxy)-2-(1,3-dimethyl-1H-pyrazole-5-carboxamido)-1-(4-(2-(1-ethyl-3-methyl-1H-pyrazole-5-carboxamido)-5-sulfamoyl-1H-benzo[d]imidazol-1-yl)but-2-en-1-yl)-1H-benzo[d]imidazole-5-carboxamide] reads less than 5.30.
